# Patent publication US8921420B2, “Method for preparing dicaffeoylquinic acids and use thereof in combating aphids” (Institut National de la Recherche Agronomique, priority 2008, dated 2014)
# How the values were obtained:
# Myzus persicae [1] = assay: Toxicity test on larval development on Ap3 feeding medium (larval mortality, weight of wingless adults); type: in vivo
# Description: The goal is to quantify the toxic effect of 3,5-diCQ on the aphid throughout its larval development, namely 8 to 10 days for Myzus persicae at 19° C. The molecule is added at various concentrations to the Ap3 feeding medium.
# (§1) The medium ([…]) is poured between two UV-sterilized Parafilm® membranes and drawn onto a cylindrical support made of PVC (h=1.5 cm, d=2 cm), under sterile conditions. On Day D0, 20 neonate larvae are placed inside the cylinder, which is then turned over and pressed onto a square of Parafilm®. The dishes are placed under dimmed light (16 hr day/8 hr night) and in an enclosure set at 19° C. The fixation percentage is recorded after 1 hour as a short-term phagostimulation indicator and in order to verify that no anomaly had occurred when the aphids were placed inside the cylinder. Larval mortality is noted daily at the end of the day. On Day D+3, the larvae are sampled and split up into two new dishes. On the day of their adult molt, the aphids that have reached the wingless adult stage are deposited successively onto a precision scale (d=0.01 mg) and the cumulative weights are recorded for each concentration of each tested molecule. Individual weights are calculated thereafter. The effects of a single molecule at all concentrations and the effects of the control medium are evaluated simultaneously during the same test. The tests are routinely performed in 3 repetitions.
# Myzus persicae [2] = assay: Selection test between two media (phagostimulation index, repulsivity); type: in vivo; conditions: for concentration at which the repulsive effect (negative phagostimulation index) is significant: tested against Ap3 medium, lowest concentration tested 0.25 mM; for concentration at which significantly repulsive: against Ap3 control medium
# Description: The method used is the one developed by Yvan Rahbé (Rahbé & Febvay (1993) Entomologia Experimentalis et Applicata 67: 149-160; Chen (1996) Thesis, Institut National des Sciences Appliquées, Lyon, France: 158 pp.) in the context of research on the chemical determinants of plant resistance to various aphid species (Aphis gossypii, Acyrthosiphon pisum), and adapted to the green peach aphid, Myzus persicae.
# (§2) The goal is to evaluate the attractive or repulsive character of a candidate molecule, at various concentrations, either in relation to a control base medium or in relation to another substance. The base medium used, referred to as Ap3 (composition in the table in FIG. 10), was developed at the UMR INRA-INSA in Lyon in order to enable optimal development of the Acyrtosiphon pisum aphid species (Febvay et al. (1988) Canadian Journal of Zoology 66: 2149-2453). It also enables the development of Myzus persicae. This base medium may or may not be supplemented by the various phenolic acids tested. The aphid's selected behavior when placed in the presence of both media is studied inside a closed system where the insect has no alternative in order to feed itself but to select one of the two media. The device is shown in diagram form in FIG. 11.
# The medium (35 μl) is poured between two Parafilm® membranes stretched onto an Eppendorf® cone. On a rack holding 6 experiment cages, a control medium is arranged opposite a test medium on each cage. The repetitions of a single modality (control medium or test medium) are arranged in alternating fashion along the rack, in order to prevent any systematic bias when the aphids are placed inside. At the end of the day, six aphid larvae (second or third stage) are placed inside each of the cages of one rack. Next, the racks are inserted into a black box placed inside a climate-controlled test chamber at 19° C. for 15 hours. This passage into darkness stabilizes the larvae's fixation more quickly. The following morning, the number of aphids fixed on each medium is recorded. The tests are performed in routine fashion on 24 selection repetitions (4 racks with 6 cages each). A phagostimulation index, representing the degree of desire for the aphid in the test medium, is calculated as follows: Phagostimulation index=(Test no.−Control no.)/Total no., wherein:
# Test no.=Number of aphids fixed on the test medium,
# Control no.=Number of aphids fixed on the control medium,
# Total no.=Total number of fixed aphids.
# Consequently, the value of the index ranges from −1 to 1. A negative index means that the test medium is repulsive in relation to the control medium, and a positive index means that the test medium is attractive. The hypothesis that the effect of the test medium is identical to that of the control medium is examined by the Wilcoxon rank test.
# The tested phenolic substances other than 3,5-diCQ are of commercial origin apart from the caffeic acid methyl ester, which was synthesized. The molecules were characterized by mass spectrometry and proton nuclear magnetic resonance. The amount and stability of the dissolved molecules are monitored by HPLC after the molecules are dissolved in the Ap3 medium, at the beginning and at the end of the experiment.
# chewing insects = conditions: Tamura et al. 2004; Mullin et al. 1991; cited from earlier work
# Macrosiphum euphorbiae [3] = assay: Toxicity test during larval development; type: in vivo; conditions: FIG. 24
# Description: as §1
# (§3) Regarding the toxicity tests, no changes were made to the protocol for tests on Macrosiphum euphorbiae. However, given the size and sensitivity to stress of Acyrthosiphon pisum, the number of individuals per dish was changed to 10, the number of repetitions per tested dose was changed to 4, and no change was made to the medium during the test, as excessive disturbance of the aphids would have resulted from doing so.
# Acyrtosiphon pisum [4] = assay: Toxicity test during larval development; type: in vivo; conditions: FIG. 22
# Description: as §1, §3
# Acyrtosiphon pisum [5] = assay: Selection test (phagorepulsive effect), first-stage larvae; type: in vivo, Acyrthosiphon pisum; conditions: FIG. 21
# Description: as §2
# (§4) The medium (35 μl) is poured between two Parafilm® membranes stretched onto an Eppendorf® cone. On a rack holding 6 experiment cages, a control medium is arranged opposite a test medium on each cage. […] The following morning, the number of aphids fixed on each medium is recorded. […] A phagostimulation index, representing the degree of desire for the aphid in the test medium, is calculated as follows: Phagostimulation index=(Test no.−Control no.)/Total no., wherein: […]
# Macrosiphum euphorbiae [6] = assay: as above; type: in vivo; conditions: FIG. 23
# Description: as §2, §4
# [7] = FIG. 15, range 0.03125 to 1 mM, against Ap3
smiles,measurement,setting,value
O=C(/C=C/c1ccc(O)c(O)c1)O[C@@H]1C[C@@](OC(=O)/C=C/c2ccc(O)c(O)c2)(C(=O)O)C[C@@H](O)[C@@H]1O [cynarin],effect on the aphids' weights (in words),"Myzus persicae [1]; FIG. 20, at the 0.25 mM dose",no effect
same,concentration at which the repulsive effect (negative phagostimulation index) is significant,Myzus persicae [2]; FIG. 12,1 mM
"O=C(/C=C/c1ccc(O)c(O)c1)O[C@@H]1CC(O)(C(=O)O)C[C@@H](OC(=O)/C=C/c2ccc(O)c(O)c2)C1O (stereo partly drawn) [3,5-diCQ, 3,5-dicaffeoylquinic acid]",effect on feeding of chewing insects (in words),chewing insects,phagostimulating effect
same,toxic effect at 0.03125 mM (in words),Myzus persicae [1]; 0.03125 mM,no toxic or repulsive effect
same,reaching the wingless adult stage,Myzus persicae [1]; 1 and 2 mM concentrations,no aphids reached the wingless adult stage
same,larval mortality,"Myzus persicae [1]; FIG. 16, at 2 mM",~100%
same,dose starting at which significant depressive effect on weight of wingless adults,Myzus persicae [1]; FIG. 17,0.25 mM
same,dose with significant depressive effect on weight of wingless adults,Myzus persicae [1]; FIG. 20,0.5 mM
same,toxic effect on larval development (in words),Myzus persicae [1]; in vivo,high mortality
same,toxic effect on larval development (in words),"Myzus persicae [1]; in vivo, listed as 3,5-dicaffeoylquinic acid",toxic activity
same,mortality,"Macrosiphum euphorbiae [3]; 0.25 mM dose, within 6 days",~100%
same,mortality,"Macrosiphum euphorbiae [3]; 0.5 and 1 mM doses, within 3 to 7 days",100%
same,mortality,"Acyrtosiphon pisum [4]; starting at 0.03125 mM, within 2 days",exceeds 50%
same,mortality,"Acyrtosiphon pisum [4]; starting at 0.25 mM, within 4 days",100%
same,dose starting at which significant repulsive effect,Acyrtosiphon pisum [5],0.03125 mM
same,dose starting at which highly significant repulsive effect,Macrosiphum euphorbiae [6],0.125 mM
same,repulsive effect at 0.03125 mM (in words),Myzus persicae [2]; 0.03125 mM,no toxic or repulsive effect
same,concentration at which significantly repulsive,Myzus persicae [2]; FIG. 13,0.125 mM
same,"choice between 3,5-diCQ and chlorogenic acid at a single molarity","Myzus persicae [2]; FIG. 13, tested against each other, at 0.125 mM","systematically selects CA rather than 3,5-diCQ"
same,repulsive effect of 0.5 mM versus chlorogenic acid at 2 mM,"Myzus persicae [2]; FIG. 14, pH 7.5, CA four times higher",remains repulsive
same,dose with highly significant repulsive effect,Myzus persicae [2]; [7],0.125 mM
same,minimum concentration at which repulsive effect is detectable,Myzus persicae [2]; in vivo,125 µM
same,repulsive effect / activity (in words),Myzus persicae [2]; in vivo,repulsive activity
same,minimum concentration at which repulsive effect is detectable,Myzus persicae [2]; same value converted,64.5 mg/L
"O=C(/C=C/c1ccc(O)c(O)c1)O[C@@H]1C[C@](O)(C(=O)O)C[C@@H](O)[C@H]1O [chlorogenic acid, 5-caffeoylquinic acid, reference compound]",effect on weight of wingless adults (in words),Myzus persicae [1]; FIG. 18,probiotic effect
same,larval mortality,Myzus persicae [1]; in vivo,≤ 10%
same,toxic effect on larval development (in words),Myzus persicae [1]; in vivo,no negative effects
same,concentration at which the repulsive effect (negative phagostimulation index) is significant,Myzus persicae [2]; FIG. 12,0.5 mM
same,concentration at which significantly repulsive,Myzus persicae [2]; FIG. 13,0.25 mM
"O=C(O)/C=C/c1ccc(O)cc1 [Para-coumaric acid, para-coumaric acid, reference compound]",repulsive effect (in words),"Myzus persicae [2]; FIG. 12, concentration range tested, against Ap3 medium",no repulsive effect
"O=C(/C=C/c1ccc(O)c(O)c1)O[C@@H]1C[C@](OC(=O)/C=C/c2ccc(O)c(O)c2)(C(=O)O)C[C@@H](O)[C@H]1O [1,5-diCQ, 1,5-dicaffeoylquinic acid]",toxic effect on larval development (in words),Myzus persicae [1]; in vivo,toxic activity
"O=C(/C=C/c1ccc(O)c(O)c1)O[C@H]1[C@H](O)C[C@](O)(C(=O)O)C[C@H]1OC(=O)/C=C/c1ccc(O)c(O)c1 [4,5-diCQ, 4,5-dicaffeoylquinic acid]",dose with significant depressive effect on weight of wingless adults,Myzus persicae [1]; FIG. 20,0.25 mM
same,toxic effect on larval development (in words),Myzus persicae [1]; in vivo,toxic activity
same,dose starting at which significant repulsive effects were detected,Myzus persicae [2]; [7],0.03125 mM
same,dose with highly significant repulsive effect,Myzus persicae [2]; [7],0.125 mM
same,repulsive effect / activity (in words),Myzus persicae [2]; in vivo,repulsive activity
